Data: patent publication US5045566A, “Novel imidate insecticides” (ICI Americas Inc., priority 1989, dated 1991)

How the values were obtained:
Format in all cases: in vivo
[1] = test system: Cabbage Looper [Trichoplusia ni (Hubner)]; assay: Cabbage looper leaf dip (CL), 3-5 days; details: percent in solution, second-instar larvae
How it was run: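 Squash cotyledons dipped in test solution (acetone-water 50-50, ≤0.1%), dried, offered to 5 second-instar larvae; mortality after 3-5 days gives LC50.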

[2] = test system: Maize weevil [Sitophilus zeamais (Motschulsky)]; assay: Maize weevil on dipped corn seeds (MW), 48 hours; details: percent in solution, adult weevils
How it was run: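 LC50, given as percent of compound in dipping solution, comes from dosage-mortality curves over concentrations descending from 0.01%. Four corn seeds soaked 2-3 s in 50:50 acetone:water solution were dried and held with 10 adult weevils, about 25° C, mortality read after 48 h.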

[3] = test system: Aster Leafhopper [Macrosteles fascifrens (Stal)]; assay: Aster leafhopper on dipped oat seedlings (LH), 48 hours; details: percent in solution, adults/nymphs
How it was run: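 Three ~10 cm oat seedlings per cup were dipped 2-3 seconds in 50-50 acetone-water compound solutions, dried, and caged with ten adult/nymph leafhoppers. Mortality was counted after 48 hours at concentrations from 0.05% downward. LC50, as percent compound in solution, came from dosage-mortality curves.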

[4] = test system: Tobacco Budworm [Heliothis virescens (Fabricius)] eggs; assay: Tobacco budworm eggs (TBW-E); details: percent in solution; 2-day old eggs
How it was run: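 Step 1: dip 2-day old egg patches in acetone test solutions (top concentration 0.1%). Step 2: hold in dishes with rearing medium at 78° F. Step 3: record mortality after control hatch and feeding.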

[5] = test system: Black Bean Aphid [Aphis fabae (Scop.)]; assay: Black bean aphid spray test on nasturtium (BBA), 48 hours; details: percent of test compound in sprayed solution
How it was run: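 LC50, given as percent test compound in the sprayed liquid, was calculated from dosage-mortality curves using concentrations from 0.05% downward. Sprays in 50:50 acetone-water went to runoff on ~5 cm nasturtiums carrying 25-50 aphids of mixed ages, one day after infestation. Deaths were counted 48 h later under greenhouse conditions.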

[6] = test system: Housefly [Musca domestica]; assay: Housefly contact mortality in dishes (HF), 48 hours; details: μg of test compound per 25 female flies
How it was run: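 Dose range started at 100 μg per 25 female flies and went downward. Insects (1-2 days old) contacted a dried acetone/peanut-oil deposit in dishes; LC50 values come from dosage-mortality curves at 48 h.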

Row | Compound | LC50 CL [1] | LC50 MW [2] | LC50 LH [3] | LC50 TBW E (eggs) [4] | LC50 BBA [5] | LC50 HF [6]
1 | Cc1ccc(N=C(OCc2ccc(F)c(Oc3ccccc3)c2)C(C)C)cc1F [Compound 354] | > 0.1% | 0.0068% | < 0.05% | 0.018% | 0.001% | < 100 µg
2 | CC(C)C(=Nc1ccc2c(c1)OCO2)OCc1ccnc(Oc2ccccc2)c1 [Compound 540] | < 0.1% | > 0.01% | > 0.05% | > 0.1% | > 0.05% | > 100 µg
3 | CCC(=Nc1ccc2c(c1)OCO2)OCc1cccc(Oc2ccccc2)c1 [Compound 178, N-(3,4-Methylenedioxyphenyl)-O-(3-phenoxybenzyl)propionimidate] | 0.004% | > 0.01% | > 0.05% | > 0.1% | 0.05% | 6 µg
4 | Cc1cccc(N=C(OCc2cccc(Oc3ccc(Cl)cc3)n2)C(C)C)c1 [Compound 545] | > 0.1% | > 0.01% | > 0.05% | > 0.1% | 0.005% | < 100 µg
5 | CC(C)C(=Nc1cccc(C(F)(F)F)c1)OCc1cccc(Oc2ccc(Cl)cn2)c1 [Compound 518] | 0.00075% | > 0.01% | > 0.05% | > 0.1% | > 0.05% | > 100 µg
6 | CCc1ccc(N=C(OCc2ccc(F)c(Oc3ccc(F)cc3)c2)C(C)C)cc1 [Compound 361] | 0.001% | > 0.01% | < 0.05% | 0.04% | 0.0003% | < 100 µg
7 | C#CC(OC(=Nc1cccc(C(F)(F)F)c1)C(C)C)c1cccc(Oc2ccccc2)c1 (stereo not drawn) [Compound 519] | 0.0037% | > 0.01% | > 0.05% | > 0.1% | > 0.05% | 60 µg
8 | CC(C)C(=Nc1ccc(F)c(Cl)c1)OCc1cccc(Oc2ccccc2F)c1 [Compound 119] | 0.0007% | > 0.01% | 0.0008% | 0.048% | > 0.05% | 27 µg
9 | CC(C)C(=Nc1cccc(C(F)(F)F)c1)OCc1cccc(Nc2ccc(F)cc2)c1 [Compound 513] | 0.007% | > 0.01% | > 0.05% | > 0.1% | > 0.05% | 81 µg
10 | CC(C)C(=Nc1ccc2c(c1)OCCO2)OCc1cccc(Oc2ccccc2)c1 [Compound 179] | 0.004% | > 0.01% | 0.005% | > 0.1% | 0.003% | 13 µg
11 | CC(C)C(=Nc1ccc(F)c(Cl)c1)OCc1ccc(OCc2ccccc2)cc1 [Compound 475] | 0.008% | > 0.01% | > 0.05% | > 0.1% | > 0.05% | > 100 µg
12 | Cc1cc(N=C(OCc2ccc(F)c(Oc3ccc(F)cc3)c2)C(C)C)ccc1Br [Compound 359] | > 0.1% | > 0.01% | 0.05% | 0.023% | 0.0006% | < 100 µg
13 | CC(C)C(=Nc1ccccc1C(F)(F)F)OCc1cccc(Oc2ccccc2)c1 [Compound 72] | 0.08% | > 0.01% | > 0.05% | > 0.1% | > 0.05% | > 100 µg
14 | CC(C)C(=Nc1ccc(C(F)(F)F)cc1)OCc1cccc(Cc2ccccc2)c1 [Compound 535] | > 0.1% | > 0.01% | > 0.05% | > 0.1% | > 0.05% | 41 µg
15 | CC(C)C(=Nc1ccccc1)OCc1cccc(Oc2ccccc2)c1 [Compound 43] | 0.018% | > 0.01% | > 0.05% | 0.05% | 0.001% | 7 µg
16 | CC(C)C(=Nc1ccc2c(c1)OCO2)OCc1ccc(F)c(Oc2ccc(Cl)cc2)c1 [Compound 366] | 0.0007% | > 0.01% | 0.05% | 0.012% | 0.0006% | < 100 µg
17 | CC(C)C(=Nc1cccc(Br)c1)OCc1cccc(Oc2ccccc2)c1 [Compound 128] | 0.005% | > 0.01% | 0.003% | 0.037% | 0.001% | 4.5 µg
18 | CC(C)(C)C(=Nc1ccc(F)c(F)c1)OCc1coc(Cc2ccccc2)c1 [Compound 525] | < 0.1% | > 0.01% | > 0.05% | > 0.1% | > 0.05% | > 100 µg
19 | Cc1ccc(N=C(OCc2cccc(Oc3ccccc3)c2)C(C)C)cc1 [Compound 156] | 0.004% | > 0.01% | > 0.05% | 0.05% | 0.001% | 10 µg
20 | CCc1ccc(N=C(OCc2ccc(F)c(Oc3ccccc3)c2)C(C)C)cc1 [Compound 360] | 0.006% | > 0.01% | < 0.05% | > 0.1% | 0.0006% | < 100 µg
21 | CC(C)C(=Nc1cccc([N+](=O)[O-])c1)OCc1cccc(Oc2ccc(Cl)cc2)c1 [Compound 271] | 0.0004% | > 0.01% | > 0.05% | 0.1% | > 0.05% | 27 µg
22 | Cc1cccc(N=C(OCc2cccc(Oc3ccccc3)c2)C(C)C)c1 [Compound 155] | 0.004% | > 0.01% | > 0.05% | 0.06% | 0.001% | 9 µg
23 | CC(C)C(=Nc1ccc(Cl)c(Cl)c1)OCc1cccc(Nc2ccc(F)cc2)c1 [Compound 514] | 0.008% | > 0.01% | > 0.05% | > 0.1% | 0.003% | > 100 µg
24 | CCC(=Nc1ccc(F)c(F)c1)OCc1coc(Cc2ccccc2)c1 [Compound 524] | > 0.1% | > 0.01% | > 0.05% | > 0.1% | > 0.05% | 5.2 µg
25 | C=CCOc1cccc(COC(=Nc2ccc(F)c(Cl)c2)C(C)C)c1 [Compound 479] | 0.013% | > 0.01% | > 0.05% | > 0.1% | > 0.05% | 66 µg
26 | Fc1ccc(N=C(OCc2cccc(Oc3ccccc3)c2)C(F)F)cc1 [Compound 50] | 0.02% | > 0.01% | > 0.05% | > 0.05% | 0.01% | 43 µg
27 | Cc1ccc(N=C(OCc2ccc(F)c(Oc3ccc(F)cc3)c2)C(C)C)cc1F [Compound 355] | > 0.1% | > 0.01% | < 0.05% | > 0.1% | 0.0006% | < 100 µg
28 | CC(C)C(=Nc1ccc(F)cc1)OCc1cccc(Oc2ccc(Br)cc2)c1 [Compound 259] | 0.0003% | > 0.01% | > 0.05% | 0.05% | 0.006% | 15 µg
